Measured values published in patent US9499484B2, “Indole, indoline derivatives, compositions comprising them and uses thereof” (priority 2012, dated 2016).
Counter-ions that a name gives are not always drawn. Like-named read-outs stand apart in the source and are kept apart here.

Experiments:
[1] = Radical scavenging, glucose oxidase/luminol luminescence; format: biochemical; settings: concentration reducing luminescence/radical by 50%; mean ± SD, three independent experiments
Protocol: A. Measurement of Radical Scavenging
A mixture comprising glucose oxidase (GO), luminol, sodium selenite [IV] ([…]) and cobalt [II] (Co^+2) all in Hank's Balance Salt Solution (HBSS) was used (Ginsburg et al, 2004). The production of H2O2 produces a burst of luminescence within 30-60 sec, which lasts for 7-10 min. The luminescence involves oxidation of SEL+5 to it SEL+6 and also the generation of oxidants, which are catalyzed by Co^+2. This method mimics infection and inflammation conditions in which there is an accumulation of several oxidant species. This method provides a source of several radicals. Reduction in luminescence by the compounds is due to their ability to sequester radicals and was measured after addition of several concentrations of each compound. The concentration of each compound that reduced the luminescence by 50% was calculated.

AChE = molecular target: T1, AChE (UniProt P23795); format: biochemical, human or bovine erythrocytes; settings: Table 3; 120 min incubation; read-out: IC50 AChE 120 min
T1 sequence (P23795 1-613): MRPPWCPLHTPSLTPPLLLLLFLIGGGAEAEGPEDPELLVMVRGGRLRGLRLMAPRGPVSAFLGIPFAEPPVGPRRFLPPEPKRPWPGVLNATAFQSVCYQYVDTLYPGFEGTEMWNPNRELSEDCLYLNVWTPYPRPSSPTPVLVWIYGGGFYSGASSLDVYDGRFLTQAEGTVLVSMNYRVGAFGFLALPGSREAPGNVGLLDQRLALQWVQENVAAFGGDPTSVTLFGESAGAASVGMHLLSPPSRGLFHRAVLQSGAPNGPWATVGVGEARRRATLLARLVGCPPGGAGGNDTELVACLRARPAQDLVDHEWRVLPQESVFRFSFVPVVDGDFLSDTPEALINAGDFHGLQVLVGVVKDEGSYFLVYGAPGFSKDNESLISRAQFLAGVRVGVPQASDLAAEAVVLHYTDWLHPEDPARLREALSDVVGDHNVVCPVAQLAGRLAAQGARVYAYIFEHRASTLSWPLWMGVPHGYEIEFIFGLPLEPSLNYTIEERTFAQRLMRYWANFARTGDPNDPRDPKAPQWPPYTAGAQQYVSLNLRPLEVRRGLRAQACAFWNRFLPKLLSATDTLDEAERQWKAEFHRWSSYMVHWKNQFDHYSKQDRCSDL
Protocol: (§1) B. Measurement of Acetylcholinesterase (AChE) and Butylcholinesterase (BuChE) Inhibition In Vitro
(§2) The enzyme was incubated at 37° C. with 6-10 concentrations of the compounds tested and samples were collected at 15, 30, 60 and 120 min Aliquots were transferred to an Elisa multiscan microplate reader (Labsystems) at 15-60 sec time intervals for the determination of residual AChE activity, with Ascent PC software. […] The % inhibition of AChE by each concentration was calculated by comparison with the activity of the enzyme in the absence of drug. […] BuChE-inhibitory activity was determined as described above using BuChE (Sigma Israel) with butylthiocholine iodide (BuTh) 0.075M as a substrate.

[2] = system: rat cardiac myoblasts (H9c2); experiment: Protection against H2O2-induced cell death in cardiomyocytes, Alamar Blue; format: cell-based; settings: concentration(s) giving >50% protection
Protocol: C. Measurement of Protective Activity Against Oxidative Stress in Cell Cultures
Compounds of the invention were tested for their potential to protect against cell death induced by oxidative stress in a cell line derived from rat cardiac myoblasts (H9c2) (Hescheler et al., 1991). Cells were cultured in Dulbecco's Modified Eagle's Medium (DMEM), 4500 mg/L D-glucose with 10% foetal calf serum (FCS), 10000 U/mL penicillin, […] streptomycin and 25 μg/mL Amphotericin B at 37° C. with 95% air and 5% CO2. One day prior to the measurement, cells were seeded in 96 well-plates at a density of 5,000 cells/well and incubated with 100 μM H2O2 for 1 h. […] Cells were incubated with different compounds of the invention in several concentrations ranging from 0.0001-100 μM, for 1, 4 or 7 h prior to addition of H2O2. Cell viability was measured by means of Alamar Blue (AbD Serotec, BUF012A). In order to compare the protective effect of the compounds this degree of cell death was normalized to 100% in each experiment. The effect of the drugs is expressed as percent reduction of this value.

BuChE = molecular target: T2, BuChE (UniProt P81908); format: biochemical, human or equine serum; settings: read-out: IC50 BuChE 120 min; Table 3; 120 min incubation
T2 construct: 120 min incubation; BuChE IC50
Protocol: as §1, §2

[3] = system: NO, BV2 mouse microglial cells; experiment: NO reduction in LPS-stimulated BV2 microglia; format: cell-based; settings: for Reduction in NO levels by at >20%, BV2 Microglia range: concentration range, None = no reduction up till 100 nM
Protocol: (§3) The BV2 mouse microglial cells were created by infecting primary mouse microglia with v-raf/v-myc oncogen-carrying retrovirus and donated by Dr. Sigal Fleisher—Berkovich (Ben-Gurion University of the Negev). The cells were cultured in RPMI 1640 containing 0.4 mM L-Glutamine, 10% FCS, 100 units/ml penicillin, 100 μg/ml streptomycin and maintained in a humidified incubator at 37° C. with 5% CO2. For measurement of the effect of compounds on the release of NO the cells were seeded in a density of 80,000 cells/ml and confluence of about 60%, and incubated with test compounds (in the absence of FCS) for […] All the medium was removed and fresh medium containing FCS and LPS (10 μg/ml) added and the cells maintained at 37° C. for 24 h. The release of NO into the medium was determined by measurement of nitrite levels using Griess reagent reaction. For measurement of protein levels of cytokines cells were seeded in a density of 80,000 and incubated with test compounds (in the absence of FCS) and then with LPS as described above. The medium was centrifuged and supernatants collected after 6 h for TNF-α (Biolegend) and after 20 h for IL-6 (Biolegend).

TNF-α, RAW 264.7 cells = experiment: TNF-α reduction in LPS-stimulated RAW 264.7 macrophages; format: cell-based, mouse
NO, RAW 264.7 cells = experiment: NO reduction in LPS-stimulated RAW 264.7 macrophages; format: cell-based, mouse
[4] = system: TNF-α, BV2 mouse microglial cells; experiment: TNF-α reduction in LPS-stimulated BV2 microglia; format: cell-based; settings: for Reduction in TNF-α levels, BV2 Microglia range: concentration range, None = no reduction up till 100 nM
Protocol: as §3

[5] = system: ChE (AChE, BuChE) in plasma, muscle, spleen, brain; settings: for ChE inhibition in plasma, muscle, and spleen: after ip and or oral administration in mice
Protocol: E. Acetylcholinesterase (AChE) and Butylcholinesterase (BuChE) Inhibition Ex Vivo
Compounds of the invention or saline were administrated by intraperitoneal (ip) injection or gavage to groups of 6-7 male ICR or Balb C mice (5-6 weeks of age). The mice were sacrificed 15, 30, 60 or 120 min after drug administration and the brain (minus cerebellum), spleen, and muscle were rapidly removed, weighed and put on ice. Blood was also collected in heparinised tubes, centrifuged at 14000 rpm at room temperature for 4 mM to provide plasma. Phosphate buffer pH 7 was added to each tissue to produce concentrations of 1 mg/mL for brain and spleen and 8 mg/mL for muscle. The tissues were homogenised in cold phosphate buffer pH 7 containing 0.1% Triton and centrifuged at 14000 rpm. Aliquots of plasma and the supernatant of all tissues were incubated with AcTh or BuTh and DTNB in phosphate buffer pH 7 and the rate of development of the yellow colour was measured as described above. Enzyme activity was measured for each time and drug concentration and percent inhibition of the AChE or BuChE activity was calculated by comparison with that of control mice injected with saline. Results are represented as p moles acetylthiocholine or butythiocholine hydrolysed/min/gm tissue.

Radical scavenging, Sin1 = format: biochemical; settings: mean ± SD, three independent experiments
[6] = Mus musculus, RAW264.7, 6 h, read-out: Reduction in TNF-α levels, RAW Macrophages % peak reduction
[7] = concentration range; None = no reduction up till 100 nM
[8] = Mus musculus, RAW264.7, 24 h, read-out: Reduction in NO levels, RAW Macrophages % peak reduction
[9] = cells in μM, no effect ≦ 100 μM given as >100

Row | SMILES | IC50 [1] [µM] | Cardiomyocte cell line Conc′ >50% protection H2O2 Alamar blue ([2]; cells in nM) [nM] | IC50 (BuChE) [µM] | Reduction in NO levels by at >20%, BV2 Microglia range [3] | Reduction in TNF-α levels, BV2 Microglia range [4] | Cardiomyocte cell line Conc′ >50% protection H2O2 Alamar blue [2, 9] | further results
1 | CCCCN(C)C(=O)Oc1ccc2c(c1)NCC2CCC(=O)OC (stereo not drawn) [AN-677, 3-(2-(Methoxycarbonyl)ethyl)-1-indoline-6-yl butylmethylcarbamate hydrochloride] | 24.1 ± 0.18 | 1 to 10 | 404 |  |  |  | IC50 (AChE): 62.3 µM
2 | CCN(C)C(=O)Oc1ccc2c(c1)NCC2CCC(=O)O (stereo not drawn) [AN-681, 3-(6-(Ethyl(methyl)carbamoyloxy)indolin-3-yl) propanoic acid hydrochloride] | 1.14 ± 0.09 |  | 10 | None | None |  | Emax (TNF-α, RAW 264.7 cells; [6]): 29.2 ± 5.6%; Reduction in TNF-α levels, RAW Macrophages range (TNF-α, RAW 264.7 cells; [7]): 0.1 to 100 nM; Emax (NO, RAW 264.7 cells; [8]): 50.1 ± 4.1%; Reduction in NO levels by at >20%, RAW Macrophages range (NO, RAW 264.7 cells; [7]): 10^−1-100 nM
3 | COC(=O)CCC1CNc2cc(OC(=O)N(C)c3ccc(OC)cc3)ccc21 (stereo not drawn) [AN-685, Methyl 3-(6-((4-methoxyphenyl)(methyl)carbamoyloxy)indolin-3-yl)propanoate hydrochloride] | 3.41 ± 0.02 | 0.001 to 0.1 | 54 |  |  |  | 
4 | COC(=O)CCC1CN(C)c2cc(OC(=O)N(C)c3ccc(OC)cc3)ccc21 (stereo not drawn) [AN-687, Methyl 3-(6-((4-methoxyphenyl)(methyl)carbamoyloxy)-1-methylindolin-3-yl)propanoate hydrochloride] | 2.24 ± 0.03 |  | 372 |  |  | 100 to 10000 nM | 
5 | CCCCN(C)C(=O)Oc1ccc2c(c1)N(C)CC2CCC(=O)OC (stereo not drawn) [AN-691, Methyl 3-(6-(butyl(methyl)carbamoyloxy)-1-methylindolin-3-yl)propanoate hydrochloride] | 6.27 ± 0.05 |  | 66.8 |  |  | 100000 nM | 
6 | COC(=O)CCC1CNc2cccc(OC(=O)N(C)c3ccc(OC)cc3)c21 (stereo not drawn) [AN-819, 3-(3-methoxy-3-oxopropyl)-4-(((4-methoxyphenyl)(methyl)carbamoyl)oxy) indolin-1-ium hydrochloride] | 19 ± 0.6 | 0.001 to 1 | 4.6 |  |  |  | ChE inhibition in plasma, muscle, and spleen [5]: inhibited ChE; IC50 (Radical scavenging, Sin1): 3.18 ± 0.2 µM
7 | COC(=O)CCC1CNc2cccc(O)c21 (stereo not drawn) [AN-832, Methyl 3-(4-hydroxyindolin-3-yl)propanoate hydrochloride] | 0.67 ± 0.05 |  |  | None | 10^−1-100 nM |  | inhibition of the level of TNF-α induced in RAW cells by LPS (FIG. 3) (TNF-α, RAW 264.7 cells): inhibition; Emax (TNF-α, RAW 264.7 cells; Mus musculus, RAW264.7, 6 h; read-out: Reduction in TNF-α levels, RAW Macrophages % peak reduction): 39.2 ± 2.6%; Emax (NO, RAW 264.7 cells; Mus musculus, RAW264.7, 24 h; read-out: Reduction in NO levels, RAW Macrophages % peak reduction): 46.1 ± 3%; Reduction in TNF-α levels, BV2 Microglia % peak reduction [4]: 38.2 ± 3.2%; IC50 (Radical scavenging, Sin1): 3.54 ± 0.21 µM
8 | COC(=O)CCC1CN(C)c2cccc(O)c21.Cl (stereo not drawn) [AN-833, Methyl 3-(4-hydroxy-1-methylindolin-3-yl)propanoate hydrochloride] | 0.45 ± 0.03 |  |  |  |  | no effec ≦ 100 μM | 
9 | O=C(O)CCC1CNc2cccc(O)c21 (stereo not drawn) [AN-834, 3-(4-hydroxyindolin-3-yl)propanoic acid hydrochloride] | 1.44 ± 0.04 | 0.1 to 10 |  |  |  |  | 
10 | CCN(C)C(=O)Oc1cccc2c1C(CCC(=O)O)CN2 (stereo not drawn) [AN-850, hydrochloride] | 1.59 ± 0.39 |  | 0.3 | 10^−2-100 nM | 10^−3-100 nM |  | Reduction in NO levels, BV2 Microglia % peak reduction [3]: 37.6 ± 5.0%; Reduction in TNF-α levels, RAW Macrophages range (TNF-α, RAW 264.7 cells; [7]): None; ChE inhibition in plasma, muscle, and spleen [5]: inhibited ChE; IC50 (AChE): 19 µM; Reduction in TNF-α levels, BV2 Microglia % peak reduction [4]: 30.5 ± 0.6%
11 | CCOC(=O)CCC1CNc2cccc(OC(=O)N(C)CC)c21.O=C(O)CC(O)(CC(=O)O)C(=O)O (stereo not drawn) [AN-871] |  |  |  |  |  | no effect ≦ 100 μM | 
12 | CCN(C)C(=O)Oc1cccc2[nH]cc(CCN)c12.Cl [AN-886, 2-(4-((ethyl(methyl)carbamoyl)oxy)-1H-indol-3-yl)ethanaminium hydrochloride] |  |  |  |  |  | no effect ≦ 100 μM | 
13 | CCN(C)C(=O)Oc1cccc2c1C(CCN)CN2 (stereo not drawn) [AN-890, 3-(2-Aminoethyl)indolin-4-yl ethyl(methyl)carbamate dihydrochloride] | 0.07 ± 0.01 |  | 0.2 | None | None |  | inhibition of the level of TNF-α induced in RAW cells by LPS (FIG. 3) (TNF-α, RAW 264.7 cells): inhibition; Emax (TNF-α, RAW 264.7 cells; [6]): 36.6 ± 4.1%; ChE inhibition in plasma, muscle, and spleen [5]: inhibited ChE; ChE inhibition in skeletal muscle ([5]; mice, 1 mg/kg): little or no effect; ChE inhibition in plasma and spleen ([5]; mice, 1 mg/kg, ip and oral, 30 to 120 min): inhibited ChE in plasma and spleen equally well after ip and oral administration; Emax (NO, RAW 264.7 cells; [8]): 54.6 ± 2.3%; IC50 (Radical scavenging, Sin1): 2.13 ± 0.18 µM
